# Assay results taken from patent publication US5618795A, “Dibekacin derivatives and arbekacin derivatives active against resistant bacteria, and the production thereof” (Zaidan Hojin Biseibutsu Kagaku Kenkyu Kai, priority 1992, dated 1997).
# Read-outs that look alike come from different tables or passages of the source.
# Key:
# [1] = Solubility in water; type: physicochemical
# [2] = Acute toxicity, single intravenous administration to mice; type: in vivo; conditions: mouse, in vivo; single intravenous administration; mice (ICR-strain, 4 weeks old, female); observations for two weeks; read-out: LD50
# Description: 50% Lethal dosages (LD50, observations for two weeks) of the new compounds of this invention as estimated upon single intravenous administration to mice (ICR-strain, 4 weeks old, female) are as follows:
# 50% Lethal dosages (LD50, observations for two weeks) of the new compounds of general formula (XVI) according to the seventh aspect of this invention as estimated upon single intravenous administration to mice (ICR-strain, 4 weeks old, female) are as follows: […]
# [3] = tested on: clinically isolated strains of MRSA; assay: Antibacterial MIC spectra against 50 clinically isolated strains of MRSA; type: cell-based, methicillin-resistant Staphylococcus aureus; conditions: Staphylococcus aureus; for MIC: read-out: Antibacterial MIC spectra; for MIC50: 50% of the 50 MRSA strains inhibited, read-out: MIC50; for MIC90: 90% of the 50 MRSA strains inhibited, read-out: MIC90
# Description: (§1) Minimum growth inhibitory concentrations (MIC) of each of 2"-amino-2"-deoxyarbekacin (Compound Ia), 2"-amino-5,2"-dideoxyarbekacin (Compound Ib), 2"-amino-2"-deoxydibekacin (Compound IIa) and 2"-amino-5,2"-dideoxydibekacin (Compound IIb) against various bacteria (20 strains) and against clinically isolated strains of MRSA (50 strains) were determined by standard serial dilution method on Muller-Hinton's agar medium (as estimated after cultivating at 27° C. for 18 hours), and the test results obtained are shown in TABLE 3 and TABLE 4, respectively.
# Note:- MIC50 or MIC90 represents the concentration of tested
# active compound at which 50% or 90% of the total numbers of the bacterial
# strains tested were inhibited from their growth. DKB denotes dibekacin,
# (§2) Minimum growth inhibitory concentrations (MIC) of each of 2"-amino-5,2"-dideoxy-5-epi-fluoroarbekacin (Compound XVIa) and 2"-amino-5,2"-dideoxy-5-epi-aminoarbekacin (Compound XVIb) against various bacteria (18 strains) and against clinically isolated strains of MRSA (50 strains) were determined by standard serial dilution method on Muller-Hinton's agar medium (as estimated after cultivation at 27° C. for 18 hours), and the test results obtained are shown in TABLE 5 and TABLE 6, respectively.
# [4] = tested on: E. coli K-12 ML1410; assay: MIC by standard serial dilution method on Muller-Hinton's agar; type: cell-based; conditions: Escherichia coli, K12ML1410; Table 3; 27° C., 18 hours
# Description: as §1
# [5] = tested on: B. cereus ATCC10702; assay: as above; type: cell-based; conditions: Bacillus cereus, ATCC10702, 18 h
# Description: as §1
# [6] = tested on: Klebsiella pneumoniae PCI602; assay: as above; type: cell-based; conditions: 18 hours, read-out: MIC
# Description: as §1, §2
# [7] = tested on: E. coli JR66/W677; assay: as above; type: cell-based; conditions: Escherichia coli, JR66/W677, 18 h
# Description: as §1, §2
# [8] = tested on: E. coli K-12 ML1629; assay: as above; type: cell-based; conditions: Escherichia coli
# Description: as §1, §2
# [9] = tested on: P. aeruginosa TI-13; assay: as above; type: cell-based; conditions: Pseudomonas aeruginosa
# Description: as §1, §2
# [10] = tested on: Salmonella typhi T-63; assay: as above; type: cell-based; conditions: Salmonella enterica, 18 hours
# Description: as §1, §2
# [11] = tested on: Providencia rettgeri GN311; assay: as above; type: cell-based; conditions: 18 hours, read-out: MIC
# Description: as §1, §2
# [12] = tested on: S. aureus Smith; assay: as above; type: cell-based; conditions: Staphylococcus aureus, 27° C., 18 hours
# Description: as §1, §2
# [13] = tested on: Serratia marcescens; assay: as above; type: cell-based; conditions: 18 h
# Description: as §1, §2
# [14] = tested on: Pseudomonas aeruginosa A3; assay: as above; type: cell-based; conditions: 18 hours, read-out: MIC
# Description: as §1, §2
# [15] = tested on: P. aeruginosa PST1; assay: as above; type: cell-based; conditions: Pseudomonas aeruginosa, 18 hours
# Description: as §1, §2
# [16] = tested on: Escherichia coli NIHJ; assay: as above; type: cell-based; conditions: 18 hours
# Description: as §1, §2
# [17] = tested on: Shigella dysenteriae JSI1910; assay: as above; type: cell-based; conditions: JSI1910, 18 h
# Description: as §1, §2
# [18] = tested on: Staphylococcus aureus FDA209P; assay: as above; type: cell-based; conditions: 18 hours
# Description: as §1, §2
# [19] = tested on: Proteus vulgaris OX19; assay: as above; type: cell-based; conditions: 18 hours, read-out: MIC
# Description: as §1, §2
# [20] = tested on: E. coli K-12 LA290 R55; assay: as above; type: cell-based; conditions: Escherichia coli, K12LA290R55, 18 h
# Description: as §1, §2
# [21] = tested on: Bacillus subtilis PCI219; assay: as above; type: cell-based; conditions: 18 hours
# Description: as §1, §2
# [22] = tested on: P. aeruginosa H9; assay: as above; type: cell-based; conditions: Pseudomonas aeruginosa
# Description: as §1, §2
# [23] = tested on: S. epidermidis 109; assay: as above; type: cell-based; conditions: Staphylococcus epidermidis, 109, 27° C., 18 hours, read-out: MIC
# Description: as §1, §2
# [24] = P. J. L. Daniels et al.; cited from earlier work
smiles,measurement,setting,value
"NCC[C@H](O)C(=O)N[C@@H]1C[C@H](N)[C@@H](O[C@H]2O[C@H](CN)CC[C@H]2N)[C@H](O)[C@H]1O[C@H]1O[C@H](CO)[C@@H](O)[C@H](N)[C@H]1N [Compound Ia, 2""-Amino-2""-deoxyarbekacin]",Solubility,[1],easily soluble in water
same,LD50 at 336 h,[2],> 100 mg/kg
same,MIC,"[3]; MRSA, 18 h",0.2 to 3.13 µg/mL
same,MIC50,"[3]; 27° C., 18 hours",0.78 µg/mL
same,MIC90,"[3]; 27° C., 18 hours",1.56 µg/mL
same,MIC,[4],1.56 µg/mL
same,MIC,[5],3.13 µg/mL
same,MIC,"[6]; PCI602, Table 3, 27° C.",1.56 µg/mL
same,MIC,[7],3.13 µg/mL
same,MIC,"[8]; K12ML1629, Table 3, 27° C., 18 hours, read-out: MIC",3.13 µg/mL
same,MIC,"[9]; TI13, 18 h",3.13 µg/mL
same,MIC,"[10]; Table 3, 27° C.",0.78 µg/mL
same,MIC,"[11]; GN311, Table 3, 27° C.",1.56 µg/mL
same,MIC,[12]; Table 3,≤ 0.2 µg/mL
same,MIC,[13],3.13 µg/mL
same,MIC,"[14]; A3, Table 3, 27° C.",1.56 µg/mL
same,MIC,"[15]; Table 3, 27° C.",12.5 µg/mL
same,MIC,"[16]; Table 3, 27° C.",0.78 µg/mL
same,MIC,[17],3.13 µg/mL
same,MIC,"[18]; Table 3, 27° C.",0.39 µg/mL
same,MIC,"[19]; OX19, Table 3, 27° C.",1.56 µg/mL
same,MIC,[20],0.78 µg/mL
same,MIC,"[21]; Table 3, 27° C.",0.2 µg/mL
same,MIC,"[22]; H9, Table 3, 27° C., 18 hours, read-out: MIC",6.25 µg/mL
same,MIC,[23]; Table 3,0.78 µg/mL
"NCC[C@H](O)C(=O)N[C@@H]1C[C@H](N)[C@@H](O[C@H]2O[C@H](CN)CC[C@H]2N)[C@@H](N)[C@H]1O[C@H]1O[C@H](CO)[C@@H](O)[C@H](N)[C@H]1N [Compound XVIb, 2""-amino-5,2""-dideoxy-5-epi-aminoarbekacin]",Solubility,[1],easily soluble in water
same,LD50 at 336 h,[2],> 100 mg/kg
same,MIC50,"[3]; 27° C., 18 hours",0.78 µg/mL
same,MIC90,"[3]; 27° C., 18 hours",1.56 µg/mL
same,MIC,"[3]; range over 50 clinically isolated strains of MRSA, 27° C., 18 hours",0.39 to 1.56 µg/mL
same,MIC,"[6]; PCI602, Table 5, 27° C.",1.56 µg/mL
same,MIC,[7],3.13 µg/mL
same,MIC,"[8]; K12ML1629, 18 h",1.56 µg/mL
same,MIC,"[9]; TI13, Table 5, 27° C., 18 hours, read-out: MIC",1.56 µg/mL
same,MIC,"[10]; Table 5, 27° C.",0.78 µg/mL
same,MIC,"[11]; GN311, Table 5, 27° C.",1.56 µg/mL
same,MIC,[12]; Table 5,≤ 0.2 µg/mL
same,MIC,[13],3.13 µg/mL
same,MIC,"[14]; A3, Table 5, 27° C.",0.39 µg/mL
same,MIC,"[15]; Table 5, 27° C.",6.25 µg/mL
same,MIC,"[16]; Table 5, 27° C.",0.78 µg/mL
same,MIC,[17],3.13 µg/mL
same,MIC,"[18]; Table 5, 27° C.",≤ 0.2 µg/mL
same,MIC,"[19]; OX19, Table 5, 27° C.",1.56 µg/mL
same,MIC,[20],1.56 µg/mL
same,MIC,"[21]; Table 5, 27° C.",≤ 0.2 µg/mL
same,MIC,"[22]; H9, 18 h",3.13 µg/mL
same,MIC,[23]; Table 5,0.39 µg/mL
"NC[C@@H]1CC[C@@H](N)[C@@H](O[C@H]2[C@H](O)[C@@H](O[C@H]3O[C@H](CO)[C@@H](O)[C@H](N)[C@H]3O)[C@H](N)C[C@@H]2N)O1 [DKB, 3',4'-dideoxykanamycin B, reference compound]",MIC50,"[3]; 27° C., 18 hours",50 µg/mL
same,MIC90,"[3]; 27° C., 18 hours",> 100 µg/mL
CN[C@@H]1[C@@H](O)[C@@H](O[C@@H]2[C@H](F)[C@H](O[C@H]3OC(CN)=CC[C@H]3N)[C@@H](N)C[C@H]2N)OC[C@]1(C)O [5-epi-fluoro-5-deoxysisomicin],antibacterial activity (in words),[24],good antibacterial activity
